Assay results as given in PubChem BioAssay (NCI).
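These data come from cells grown in 96-well plates and exposed to compound for 48 hours at five concentrations. GI50 = concentration required for 50% inhibition of growth. TGI: total growth inhibition.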

Tests used:
Experiment in all cases: inhibition of tumour cell growth, NCI panel, 48 h
786-0 renal = test system: 786-0 renal
A498 renal = test system: A498 renal
A549 NSCLC = test system: A549 NSCLC
ACHN renal = test system: ACHN renal
CAKI-1 renal = test system: CAKI-1 renal
CCRF-CEM leukemia = test system: CCRF-CEM leukemia
COLO 205 colon = test system: COLO 205 colon
DU-145 prostate = test system: DU-145 prostate
EKVX NSCLC = test system: EKVX NSCLC
HCC-2998 colon = test system: HCC-2998 colon
HCT-116 colon = test system: HCT-116 colon
HCT-15 colon = test system: HCT-15 colon
HL-60(TB) leukemia = test system: HL-60(TB) leukemia
HOP-62 NSCLC = test system: HOP-62 NSCLC
HOP-92 NSCLC = test system: HOP-92 NSCLC
HS 578T breast = test system: HS 578T breast
HT29 colon = test system: HT29 colon
IGROV1 ovarian = test system: IGROV1 ovarian
K-562 leukemia = test system: K-562 leukemia
KM12 colon = test system: KM12 colon
LOX IMVI melanoma = test system: LOX IMVI melanoma
M14 melanoma = test system: M14 melanoma
MCF7 breast = test system: MCF7 breast
MDA-MB-231 breast = test system: MDA-MB-231 breast
MDA-MB-435 = test system: MDA-MB-435
MDA-N = test system: MDA-N
MOLT-4 leukemia = test system: MOLT-4 leukemia
NCI-H226 lung = test system: NCI-H226 lung
NCI-H23 lung = test system: NCI-H23 lung
NCI-H460 lung = test system: NCI-H460 lung
NCI-H522 lung = test system: NCI-H522 lung
NCI/ADR-RES ovarian = test system: NCI/ADR-RES ovarian
OVCAR-3 ovarian = test system: OVCAR-3 ovarian
OVCAR-4 ovarian = test system: OVCAR-4 ovarian
OVCAR-5 ovarian = test system: OVCAR-5 ovarian
OVCAR-8 ovarian = test system: OVCAR-8 ovarian
PC-3 prostate = test system: PC-3 prostate
RPMI-8226 leukemia = test system: RPMI-8226 leukemia
RXF 393 renal = test system: RXF 393 renal
SF-268 CNS = test system: SF-268 CNS
SF-295 CNS = test system: SF-295 CNS
SF-539 CNS = test system: SF-539 CNS
SK-MEL-2 melanoma = test system: SK-MEL-2 melanoma
SK-MEL-28 melanoma = test system: SK-MEL-28 melanoma
SK-MEL-5 melanoma = test system: SK-MEL-5 melanoma
SK-OV-3 ovarian = test system: SK-OV-3 ovarian
SN12C renal = test system: SN12C renal
SNB-19 CNS = test system: SNB-19 CNS
SR leukemia = test system: SR leukemia
SW-620 colon = test system: SW-620 colon
T-47D breast = test system: T-47D breast
TK-10 renal = test system: TK-10 renal
U251 CNS = test system: U251 CNS
UACC-257 melanoma = test system: UACC-257 melanoma
UO-31 renal = test system: UO-31 renal
BT-549 breast = test system: BT-549 breast
MALME-3M melanoma = test system: MALME-3M melanoma
SNB-75 CNS = test system: SNB-75 CNS
UACC-62 melanoma = test system: UACC-62 melanoma

Structure (SMILES): O=Nc1c(O)cc(Nc2ccc(Br)cc2)c2ccccc12
- TGI (786-0 renal): 27.3 µM
- TGI (A498 renal): 22.2 µM
- TGI (A549 NSCLC): 6.04 µM
- TGI (ACHN renal): 25.1 µM
- TGI (CAKI-1 renal): 23.7 µM
- TGI (CCRF-CEM leukemia): > 100 µM
- TGI (COLO 205 colon): 26.6 µM
- TGI (DU-145 prostate): 3.33 µM
- TGI (EKVX NSCLC): > 100 µM
- TGI (HCC-2998 colon): 19.4 µM
- TGI (HCT-116 colon): > 59.2 µM
- TGI (HCT-15 colon): 15 µM
- TGI (HL-60(TB) leukemia): 55.9 µM
- TGI (HOP-62 NSCLC): 19.1 µM
- TGI (HOP-92 NSCLC): 45.2 µM
- TGI (HS 578T breast): > 28.4 µM
- TGI (HT29 colon): 28.1 µM
- TGI (IGROV1 ovarian): > 100 µM
- TGI (K-562 leukemia): > 75 µM
- TGI (KM12 colon): 23.1 µM
- TGI (LOX IMVI melanoma): > 31.2 µM
- TGI (M14 melanoma): 3.03 µM
- TGI (MCF7 breast): 17.8 µM
- TGI (MDA-MB-231 breast): 48.3 µM
- TGI (MDA-MB-435): 3370 nM
- TGI (MDA-N): 3.41 µM
- TGI (MOLT-4 leukemia): 42 µM
- TGI (NCI-H226 lung): 10.5 µM
- TGI (NCI-H23 lung): 3.47 µM
- TGI (NCI-H460 lung): 11 µM
- TGI (NCI-H522 lung): > 100000 nM
- TGI (NCI/ADR-RES ovarian): 33.1 µM
- TGI (OVCAR-3 ovarian): > 51.9 µM
- TGI (OVCAR-4 ovarian): > 100 µM
- TGI (OVCAR-5 ovarian): 29.8 µM
- TGI (OVCAR-8 ovarian): 37.2 µM
- TGI (PC-3 prostate): > 100 µM
- TGI (RPMI-8226 leukemia): > 86.9 µM
- TGI (RXF 393 renal): 50.3 µM
- TGI (SF-268 CNS): > 55.6 µM
- TGI (SF-295 CNS): 2.98 µM
- TGI (SF-539 CNS): > 100000 nM
- TGI (SK-MEL-2 melanoma): 3.64 µM
- TGI (SK-MEL-28 melanoma): 4.2 µM
- TGI (SK-MEL-5 melanoma): 3150 nM
- TGI (SK-OV-3 ovarian): 30.8 µM
- TGI (SN12C renal): > 63.6 µM
- TGI (SNB-19 CNS): 11.8 µM
- TGI (SR leukemia): 72.4 µM
- TGI (SW-620 colon): 35 µM
- TGI (T-47D breast): > 73.8 µM
- TGI (TK-10 renal): 27.7 µM
- TGI (U251 CNS): 40.8 µM
- TGI (UACC-257 melanoma): 3.33 µM
- TGI (UO-31 renal): 23 µM

Structure (SMILES): C=CCOc1cccc(/C=C2\SC(=Nc3ccc(O)cc3)NC2=O)c1
- GI50 (786-0 renal): 1130 nM
- TGI (786-0 renal): 7.89 µM
- GI50 (A498 renal): 790 nM
- TGI (A498 renal): 3.77 µM
- GI50 (A549 NSCLC): 717 nM
- TGI (A549 NSCLC): 14.9 µM
- GI50 (ACHN renal): 777 nM
- TGI (ACHN renal): 13.7 µM
- GI50 (BT-549 breast): 529 nM
- TGI (BT-549 breast): 3.4 µM
- GI50 (CAKI-1 renal): 466 nM
- TGI (CAKI-1 renal): 6.43 µM
- GI50 (CCRF-CEM leukemia): 402 nM
- TGI (CCRF-CEM leukemia): > 100 µM
- GI50 (COLO 205 colon): 2640 nM
- TGI (COLO 205 colon): 11.1 µM
- GI50 (DU-145 prostate): 399 nM
- GI50 (EKVX NSCLC): 1470 nM
- TGI (EKVX NSCLC): > 100 µM
- GI50 (HCC-2998 colon): 1150 nM
- TGI (HCC-2998 colon): 9.22 µM
- GI50 (HCT-116 colon): 408 nM
- TGI (HCT-116 colon): 5.38 µM
- GI50 (HCT-15 colon): 358 nM
- TGI (HCT-15 colon): > 100 µM
- GI50 (HL-60(TB) leukemia): 241 nM
- TGI (HL-60(TB) leukemia): 0.749 µM
- GI50 (HOP-62 NSCLC): 660 nM
- TGI (HOP-62 NSCLC): 13.1 µM
- GI50 (HOP-92 NSCLC): 863 nM
- TGI (HOP-92 NSCLC): 6.54 µM
- GI50 (HS 578T breast): 414 nM
- TGI (HS 578T breast): 12.4 µM
- GI50 (HT29 colon): 3.54 µM
- TGI (HT29 colon): 29.6 µM
- GI50 (IGROV1 ovarian): 543 nM
- TGI (IGROV1 ovarian): 22.8 µM
- GI50 (K-562 leukemia): 243 nM
- TGI (K-562 leukemia): > 100 µM
- GI50 (KM12 colon): 433 nM
- TGI (KM12 colon): 8.86 µM
- GI50 (LOX IMVI melanoma): 543 nM
- TGI (LOX IMVI melanoma): 12.7 µM
- GI50 (M14 melanoma): 384 nM
- TGI (M14 melanoma): 22.9 µM
- GI50 (MALME-3M melanoma): 2480 nM
- TGI (MALME-3M melanoma): 21.9 µM
- GI50 (MCF7 breast): 361 nM
- TGI (MCF7 breast): > 57.8 µM
- GI50 (MDA-MB-231 breast): 975 nM
- TGI (MDA-MB-231 breast): 6.62 µM
- GI50 (MDA-MB-435): 155 nM
- TGI (MDA-MB-435): 315 nM
- GI50 (MOLT-4 leukemia): 523 nM
- TGI (MOLT-4 leukemia): > 23.8 µM
- GI50 (NCI-H226 lung): 1210 nM
- TGI (NCI-H226 lung): 22.6 µM
- GI50 (NCI-H23 lung): 1010 nM
- TGI (NCI-H23 lung): 31.4 µM
- GI50 (NCI-H460 lung): 389 nM
- TGI (NCI-H460 lung): 5.2 µM
- GI50 (NCI-H522 lung): 406 nM
- TGI (NCI-H522 lung): 2980 nM
- GI50 (NCI/ADR-RES ovarian): 494 nM
- TGI (NCI/ADR-RES ovarian): 17.1 µM
- GI50 (OVCAR-3 ovarian): 284 nM
- TGI (OVCAR-3 ovarian): 3.15 µM
- GI50 (OVCAR-4 ovarian): 2150 nM
- TGI (OVCAR-4 ovarian): 22.8 µM
- GI50 (OVCAR-5 ovarian): 2320 nM
- TGI (OVCAR-5 ovarian): 24.9 µM
- GI50 (OVCAR-8 ovarian): 813 nM
- TGI (OVCAR-8 ovarian): 14 µM
- GI50 (PC-3 prostate): 537 nM
- TGI (PC-3 prostate): > 48.4 µM
- GI50 (RPMI-8226 leukemia): 372 nM
- TGI (RPMI-8226 leukemia): 3.1 µM
- GI50 (RXF 393 renal): 302 nM
- TGI (RXF 393 renal): 3.77 µM
- GI50 (SF-268 CNS): 1440 nM
- TGI (SF-268 CNS): > 22.6 µM
- GI50 (SF-295 CNS): 505 nM
- TGI (SF-295 CNS): 16.6 µM
- GI50 (SF-539 CNS): 296 nM
- TGI (SF-539 CNS): 1140 nM
- GI50 (SK-MEL-2 melanoma): 2910 nM
- TGI (SK-MEL-2 melanoma): 18.5 µM
- GI50 (SK-MEL-28 melanoma): 2470 nM
- TGI (SK-MEL-28 melanoma): 31.2 µM
- GI50 (SK-MEL-5 melanoma): 555 nM
- TGI (SK-MEL-5 melanoma): 2440 nM
- GI50 (SK-OV-3 ovarian): 1660 nM
- TGI (SK-OV-3 ovarian): 15.7 µM
- GI50 (SN12C renal): 953 nM
- TGI (SN12C renal): 10.1 µM
- GI50 (SNB-19 CNS): 531 nM
- TGI (SNB-19 CNS): 36.8 µM
- GI50 (SNB-75 CNS): 189 nM
- TGI (SNB-75 CNS): 668 nM
- GI50 (SR leukemia): 108 nM
- TGI (SR leukemia): > 63.7 µM
- GI50 (SW-620 colon): 383 nM
- TGI (SW-620 colon): > 80.1 µM
- GI50 (T-47D breast): 495 nM
- TGI (T-47D breast): > 100 µM
- GI50 (TK-10 renal): 4.57 µM
- TGI (TK-10 renal): 18.8 µM
- GI50 (U251 CNS): 495 nM
- TGI (U251 CNS): 12.9 µM
- GI50 (UACC-257 melanoma): 9.11 µM
- TGI (UACC-257 melanoma): > 100 µM
- GI50 (UACC-62 melanoma): 808 nM
- TGI (UACC-62 melanoma): 17.4 µM
- GI50 (UO-31 renal): 832 nM
- TGI (UO-31 renal): 2.51 µM
